# In the supplement of paper PMC10331698:
# ± gives the standard deviation of the averaged measurements.
# Assays:
# Assay in all cases: level (log10 ratio to DMSO vehicle control); higher = higher biomarker level / cell amount than vehicle control
# [1] = compound: OCC(F)(F)OC(F)(F)C(F)(F)OC(F)(F)C(F)(F)OC(F)(F)CO [1H,1H,11H,11H-Perfluorotetraethylene glycol] (in DMSO)
# Experimental: (§1)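 BioMAP Diversity Plus panel of 12 human primary cell co-culture systems (3C, 4H, LPS, SAg, BT, BF4T, BE3C, CASM3C, HDF3CGF, KF3CT, MyoF, Mphg). Compounds were added 1 h before stimulation and left for 24 h (MyoF 48 h; BT 72 h for soluble read-outs or 6 d for IgG). Biomarkers were read by ELISA, cytotoxicity by SRB, PBMC viability and proliferation by Alamar Blue. Each well value was divided by the mean of 8 DMSO control wells on the same plate and log10 transformed; duplicate blinded samples were tested at 4 concentrations.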
# Perfluorononanoic acid = compound: O=C(O)C(F)(F)C(F)(F)C(F)(F)C(F)(F)C(F)(F)C(F)(F)C(F)(F)C(F)(F)F [Perfluorononanoic acid] (in DMSO)
# Experimental: as §1
# Octafluoroadipic acid = compound: O=C(O)C(F)(F)C(F)(F)C(F)(F)C(F)(F)C(=O)O [Octafluoroadipic acid] (in DMSO)
# Experimental: as §1
# [2] = compound: O=S(=O)(O)C(F)(F)C(F)(F)C(F)(F)C(F)(F)C(F)(F)C(F)(F)C(F)(F)F [Perfluoroheptanesulfonic acid] (in DMSO)
# Experimental: as §1
# [3] = compound: C=C(C)C(=O)OCCC(F)(F)C(F)(F)C(F)(F)C(F)(F)C(F)(F)C(F)(F)C(F)(F)C(F)(F)F [8:2 Fluorotelomer methacrylate] (in DMSO)
# Experimental: as §1
# [4] = compound: OCC(F)(F)C(F)(F)C(F)(F)C(F)(F)C(F)(F)C(F)(F)CO [1H,1H,8H,8H-Perfluorooctane-1,8-diol] (in DMSO)
# Experimental: as §1
# [5] = compound: OCC(F)(F)C(F)(F)C(F)(F)C(F)F [1H,1H,5H-Perfluoropentanol] (in DMSO)
# Experimental: as §1
Test System,level (log10) ([1]; 6700 nM),level (log10) ([1]; 20000 nM),level (log10) ([1]; 60000 nM),level (log10) (Perfluorononanoic acid; 6700 nM),level (log10) (Perfluorononanoic acid; 20000 nM),level (log10) (Octafluoroadipic acid; 6700 nM),level (log10) (Octafluoroadipic acid; 20000 nM),level (log10) (Octafluoroadipic acid; 60000 nM),level (log10) ([2]; 1500 nM),level (log10) ([2]; 4400 nM),level (log10) ([2]; 13000 nM),level (log10) ([2]; 40000 nM),level (log10) ([3]; 6700 nM),level (log10) ([3]; 20000 nM),level (log10) ([4]; 6700 nM),level (log10) ([4]; 20000 nM),level (log10) ([4]; 60000 nM),level (log10) ([5]; 6700 nM),level (log10) ([5]; 20000 nM),level (log10) ([5]; 60000 nM)
HDF3CGF:CCL2/MCP-1,-0.044 ± 0.031,-0.073 ± 0.027,-0.172 ± 0.067,0.0235 ± 0.074,-0.056 ± 0.055,-0.0025 ± 0.052,0.0075 ± 0.036,0 ± 0.033,0.006,0.0055 ± 0.0035,0.005 ± 0.014,0.021 ± 0.038,-0.0095 ± 0.016,-0.012 ± 0.023,-0.012,-0.0175 ± 0.015,-0.0185 ± 0.016,-0.046 ± 0.027,-0.014 ± 0.068,-0.0225 ± 0.047
HDF3CGF:CD54/ICAM-1,0.0025 ± 0.018,-0.019 ± 0.04,-0.106 ± 0.091,-0.031 ± 0.0099,-0.033 ± 0.011,0.004,0.004 ± 0.0099,0.0005 ± 0.016,0.0035 ± 0.035,-0.007 ± 0.028,0.0075 ± 0.023,-0.0165 ± 0.039,0.0035 ± 0.021,0.0055 ± 0.013,-0.01 ± 0.0099,0.009 ± 0.0099,0.019 ± 0.0014,0,-0.01 ± 0.0014,0.009 ± 0.023
HDF3CGF:CD106/VCAM-1,-0.09 ± 0.0042,-0.202,-0.264 ± 0.044,-0.02 ± 0.034,-0.0225 ± 0.022,-0.001 ± 0.0071,-0.016 ± 0.016,-0.03 ± 0.04,-0.0245 ± 0.039,-0.024 ± 0.0042,-0.0585 ± 0.0064,-0.101 ± 0.0092,-0.0105 ± 0.013,-0.052 ± 0.064,0.02 ± 0.033,0.0365 ± 0.00071,0.017 ± 0.052,-0.0535 ± 0.015,0.023 ± 0.048,0.0145 ± 0.043
HDF3CGF:CXCL8/IL-8,0.0015 ± 0.028,-0.0025 ± 0.011,0.0115 ± 0.0064,-0.0065 ± 0.0064,-0.001 ± 0.0099,-0.0005 ± 0.0078,0.003 ± 0.0014,0.0065 ± 0.0092,0.0125 ± 0.005,-0.0115 ± 0.005,0.008 ± 0.0042,0.0065 ± 0.026,-0.0045 ± 0.0035,-0.0025 ± 0.023,0.002 ± 0.0071,-0.0015 ± 0.005,0.009 ± 0.0099,-0.0045 ± 0.0064,-0.002 ± 0.0014,0.0095 ± 0.032
HDF3CGF:CXCL9/MIG,-0.105 ± 0.011,-0.283 ± 0.03,-0.525 ± 0.14,-0.04 ± 0.016,-0.074 ± 0.02,0.009 ± 0.0028,0.007 ± 0.018,-0.0055 ± 0.015,-0.0075 ± 0.019,-0.008 ± 0.013,-0.0275 ± 0.011,-0.0505 ± 0.042,-0.024 ± 0.0042,-0.0275 ± 0.016,0.0025 ± 0.0021,0.045 ± 0.011,0.0245 ± 0.056,0.0035 ± 0.0021,0.0025 ± 0.025,-0.0105 ± 0.022
HDF3CGF:CXCL10/IP-10,-0.0435 ± 0.04,-0.155 ± 0.013,-0.418 ± 0.059,-0.019 ± 0.024,-0.061 ± 0.016,0 ± 0.0057,-0.005 ± 0.0028,0.001 ± 0.0085,0.0115 ± 0.036,-0.0195 ± 0.025,-0.042 ± 0.042,-0.0805 ± 0.00071,-0.029 ± 0.021,-0.0425 ± 0.005,-0.01 ± 0.014,0.018 ± 0.027,0.021 ± 0.034,-0.0255 ± 0.019,0.0095 ± 0.0021,0.005 ± 0.018
HDF3CGF:CXCL11/I-TAC,-0.0395 ± 0.053,-0.139 ± 0.077,-0.319 ± 0.13,0.018 ± 0.013,0.0285 ± 0.018,-0.008 ± 0.018,-0.005 ± 0.0085,-0.002 ± 0.0042,-0.042 ± 0.054,-0.001 ± 0.0099,-0.035 ± 0.018,-0.0525 ± 0.035,-0.0105 ± 0.025,-0.0715 ± 0.013,0.0145 ± 0.016,0.027 ± 0.017,0.017 ± 0.013,-0.0425 ± 0.028,-0.023 ± 0.093,0.004 ± 0.051
